These results are taken from ChEMBL document CHEMBL1743201, “Casarett and Doull's Toxicology The Basic Science of Poisons, 7th edition” (2008).

Holding throughout (type): ADME
Series [1] concerns the target T1, UDP-glucuronosyltransferase 1A3 (Homo sapiens, UniProt P35503).
T1 sequence (P35503 whole entry): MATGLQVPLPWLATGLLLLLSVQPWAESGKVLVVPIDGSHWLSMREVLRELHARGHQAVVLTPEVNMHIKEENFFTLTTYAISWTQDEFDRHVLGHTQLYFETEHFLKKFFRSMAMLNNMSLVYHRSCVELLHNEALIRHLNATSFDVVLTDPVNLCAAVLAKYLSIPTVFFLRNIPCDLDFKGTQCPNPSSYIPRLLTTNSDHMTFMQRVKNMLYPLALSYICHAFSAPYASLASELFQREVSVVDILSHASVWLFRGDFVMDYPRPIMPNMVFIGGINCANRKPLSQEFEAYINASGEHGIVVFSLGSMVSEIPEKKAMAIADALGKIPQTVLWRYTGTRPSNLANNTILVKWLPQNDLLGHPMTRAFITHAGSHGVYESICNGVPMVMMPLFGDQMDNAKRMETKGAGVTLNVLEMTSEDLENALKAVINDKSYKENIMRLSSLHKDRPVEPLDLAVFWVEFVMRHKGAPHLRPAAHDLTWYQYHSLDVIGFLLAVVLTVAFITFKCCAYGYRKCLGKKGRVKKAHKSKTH
Nature of the series: Substrate of human UDP-glucuronosyltransferase UGT1A3.

The target of series [2] is T2, UDP-glucuronosyltransferase 1A9 (Homo sapiens, UniProt O60656).
T2 sequence (O60656 whole entry): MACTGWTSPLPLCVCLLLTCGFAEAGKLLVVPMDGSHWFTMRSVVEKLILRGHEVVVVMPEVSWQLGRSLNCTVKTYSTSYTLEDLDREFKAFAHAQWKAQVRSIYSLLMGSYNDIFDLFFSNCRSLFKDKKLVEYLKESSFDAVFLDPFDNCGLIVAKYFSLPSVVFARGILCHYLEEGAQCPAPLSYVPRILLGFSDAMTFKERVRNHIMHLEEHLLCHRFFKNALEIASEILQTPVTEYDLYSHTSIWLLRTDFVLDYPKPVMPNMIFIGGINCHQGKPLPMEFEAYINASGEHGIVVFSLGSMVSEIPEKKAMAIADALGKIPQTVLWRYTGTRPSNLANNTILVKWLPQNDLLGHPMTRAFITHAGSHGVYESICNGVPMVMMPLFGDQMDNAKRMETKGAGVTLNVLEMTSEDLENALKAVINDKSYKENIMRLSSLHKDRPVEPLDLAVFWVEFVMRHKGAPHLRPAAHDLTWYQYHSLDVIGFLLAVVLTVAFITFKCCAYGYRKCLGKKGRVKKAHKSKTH
The experiment in a line: Substrate of human UDP-glucuronosyltransferase UGT1A9.

The target of series [3] is Sulfotransferase 1A1 (Homo sapiens, UniProt P50225). The experiment in a line: Major substrate of human cytosolic sulfotransferase SULT1A1.
In series [4] the target is T3, UDP-glucuronosyltransferase 1A1 (Homo sapiens, UniProt P22309).
T3 sequence (P22309 whole entry): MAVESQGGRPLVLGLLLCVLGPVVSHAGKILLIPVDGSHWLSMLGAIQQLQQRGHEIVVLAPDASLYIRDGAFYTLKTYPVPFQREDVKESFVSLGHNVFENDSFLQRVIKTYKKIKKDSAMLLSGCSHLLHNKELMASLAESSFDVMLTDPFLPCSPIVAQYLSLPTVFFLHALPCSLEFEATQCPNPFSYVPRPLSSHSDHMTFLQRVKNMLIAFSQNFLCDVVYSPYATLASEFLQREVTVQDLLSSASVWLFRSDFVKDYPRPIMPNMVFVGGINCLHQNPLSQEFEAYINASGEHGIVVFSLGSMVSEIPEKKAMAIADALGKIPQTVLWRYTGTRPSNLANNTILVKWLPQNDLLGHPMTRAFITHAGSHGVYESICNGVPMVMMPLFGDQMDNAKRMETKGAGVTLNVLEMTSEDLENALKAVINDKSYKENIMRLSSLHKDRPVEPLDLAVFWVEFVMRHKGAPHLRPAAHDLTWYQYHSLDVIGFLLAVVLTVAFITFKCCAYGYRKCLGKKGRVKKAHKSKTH
Nature of the series: Substrate of human UDP-glucuronosyltransferase UGT1A1.

Series [5] addresses T4, UDP-glucuronosyltransferase 1A6 (Homo sapiens, UniProt P19224).
T4 sequence (P19224 whole entry): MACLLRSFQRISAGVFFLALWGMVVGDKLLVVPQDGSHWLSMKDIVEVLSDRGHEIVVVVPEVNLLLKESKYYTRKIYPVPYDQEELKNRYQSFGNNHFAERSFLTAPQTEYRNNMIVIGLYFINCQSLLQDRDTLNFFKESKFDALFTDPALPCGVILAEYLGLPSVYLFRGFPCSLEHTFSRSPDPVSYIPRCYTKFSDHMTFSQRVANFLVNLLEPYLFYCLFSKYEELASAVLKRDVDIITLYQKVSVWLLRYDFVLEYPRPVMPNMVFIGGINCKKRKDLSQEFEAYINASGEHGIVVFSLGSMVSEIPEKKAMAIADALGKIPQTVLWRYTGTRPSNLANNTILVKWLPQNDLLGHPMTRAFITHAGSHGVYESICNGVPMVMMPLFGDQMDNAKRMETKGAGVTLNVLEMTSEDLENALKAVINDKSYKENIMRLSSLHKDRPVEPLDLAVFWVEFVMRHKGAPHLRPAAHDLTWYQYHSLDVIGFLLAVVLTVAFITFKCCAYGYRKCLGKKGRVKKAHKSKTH
Nature of the series: Substrate of human UDP-glucuronosyltransferase UGT1A6.

The target in series [6] is Cytochrome P450 2C9 (Homo sapiens, UniProt P11712). The experiment in a line: Clinically relevant inhibitors of human liver microsomal P450 enzymes, isoform CYP2C9. The settings on record: microsomes.
The target of series [7] is T5, UDP-glucuronosyltransferase 2B7 (Homo sapiens, UniProt P16662).
T5 sequence (P16662 whole entry): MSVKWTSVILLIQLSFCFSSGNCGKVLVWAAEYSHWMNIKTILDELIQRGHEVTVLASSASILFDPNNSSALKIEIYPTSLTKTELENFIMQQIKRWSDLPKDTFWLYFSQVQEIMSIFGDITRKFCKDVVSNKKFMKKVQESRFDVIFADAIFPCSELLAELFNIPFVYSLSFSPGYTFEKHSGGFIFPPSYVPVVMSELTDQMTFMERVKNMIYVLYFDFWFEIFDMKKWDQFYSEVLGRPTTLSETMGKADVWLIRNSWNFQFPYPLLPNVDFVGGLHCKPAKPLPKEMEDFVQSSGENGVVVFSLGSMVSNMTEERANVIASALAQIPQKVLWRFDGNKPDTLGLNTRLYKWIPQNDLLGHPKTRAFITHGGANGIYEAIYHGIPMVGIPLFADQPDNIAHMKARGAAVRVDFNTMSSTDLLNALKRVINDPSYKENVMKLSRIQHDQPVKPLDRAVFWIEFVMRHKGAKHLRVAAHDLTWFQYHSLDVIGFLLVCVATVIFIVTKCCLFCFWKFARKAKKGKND
Nature of the series: Substrate of human UDP-glucuronosyltransferase UGT2B7.

Series [8] deals with T6, Glutathione S-transferase A1 (Homo sapiens, UniProt P08263).
T6 sequence (P08263 whole entry): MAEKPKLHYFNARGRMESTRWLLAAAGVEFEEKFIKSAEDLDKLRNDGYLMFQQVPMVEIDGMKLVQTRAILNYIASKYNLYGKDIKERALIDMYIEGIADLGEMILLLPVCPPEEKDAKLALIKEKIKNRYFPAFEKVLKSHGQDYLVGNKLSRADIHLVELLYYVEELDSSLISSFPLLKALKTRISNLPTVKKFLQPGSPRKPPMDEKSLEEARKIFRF
The experiment in a line: Substrates for human cytosolic glutathione transferase GSTA1.

Series [9] addresses Glutathione S-transferase P (Homo sapiens, UniProt P09211). Nature of the series: Substrates for human cytosolic glutathione transferase GSTP1.
Series [10] addresses Sulfotransferase 1C4 (Homo sapiens, UniProt O75897). The experiment in a line: Major substrate of human cytosolic sulfotransferase SULT1C4.
Series [11] addresses T7, Sulfotransferase 1E1 (Homo sapiens, UniProt P49888).
T7 sequence (P49888 whole entry): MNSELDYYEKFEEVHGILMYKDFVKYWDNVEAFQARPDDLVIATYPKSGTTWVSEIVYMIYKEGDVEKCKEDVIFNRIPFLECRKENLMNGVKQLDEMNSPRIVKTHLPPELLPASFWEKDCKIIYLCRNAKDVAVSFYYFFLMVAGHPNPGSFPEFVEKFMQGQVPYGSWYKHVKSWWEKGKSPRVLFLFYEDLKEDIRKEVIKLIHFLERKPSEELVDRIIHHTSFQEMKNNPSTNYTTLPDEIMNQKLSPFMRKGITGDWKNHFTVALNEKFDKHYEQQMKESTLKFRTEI
Nature of the series: Major substrate of human cytosolic sulfotransferase SULT1E1.

Series [12] has as its target T8, Cytochrome P450 1A2 (Homo sapiens, UniProt P05177).
T8 sequence (P05177 whole entry): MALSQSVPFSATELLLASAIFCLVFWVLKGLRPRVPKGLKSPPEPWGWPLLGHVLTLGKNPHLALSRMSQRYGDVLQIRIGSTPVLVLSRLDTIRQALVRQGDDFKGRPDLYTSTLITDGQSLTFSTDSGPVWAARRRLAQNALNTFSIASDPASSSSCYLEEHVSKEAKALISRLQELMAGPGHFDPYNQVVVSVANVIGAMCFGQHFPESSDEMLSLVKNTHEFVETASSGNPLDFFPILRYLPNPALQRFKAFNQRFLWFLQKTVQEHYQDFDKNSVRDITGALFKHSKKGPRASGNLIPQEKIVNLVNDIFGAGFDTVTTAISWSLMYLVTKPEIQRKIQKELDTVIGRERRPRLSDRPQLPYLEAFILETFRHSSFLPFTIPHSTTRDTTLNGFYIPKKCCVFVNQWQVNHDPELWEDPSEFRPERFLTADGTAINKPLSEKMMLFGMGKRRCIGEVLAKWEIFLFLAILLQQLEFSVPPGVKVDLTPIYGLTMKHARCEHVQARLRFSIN
Nature of the series: Clinically relevant substrates of human liver microsomal P450 enzymes, isoform CYP1A2. Particulars: microsomes.

The structures appear in SMILES notation.

Glutathione S-transferase P, sequence (P09211 whole entry): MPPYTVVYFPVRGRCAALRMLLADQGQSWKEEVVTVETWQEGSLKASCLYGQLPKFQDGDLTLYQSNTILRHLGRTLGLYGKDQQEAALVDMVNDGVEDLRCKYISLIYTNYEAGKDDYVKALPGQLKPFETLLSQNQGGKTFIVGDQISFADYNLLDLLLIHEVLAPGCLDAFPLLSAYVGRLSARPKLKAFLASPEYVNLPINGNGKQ
Cytochrome P450 2C9, sequence (P11712 whole entry, canonical isoform): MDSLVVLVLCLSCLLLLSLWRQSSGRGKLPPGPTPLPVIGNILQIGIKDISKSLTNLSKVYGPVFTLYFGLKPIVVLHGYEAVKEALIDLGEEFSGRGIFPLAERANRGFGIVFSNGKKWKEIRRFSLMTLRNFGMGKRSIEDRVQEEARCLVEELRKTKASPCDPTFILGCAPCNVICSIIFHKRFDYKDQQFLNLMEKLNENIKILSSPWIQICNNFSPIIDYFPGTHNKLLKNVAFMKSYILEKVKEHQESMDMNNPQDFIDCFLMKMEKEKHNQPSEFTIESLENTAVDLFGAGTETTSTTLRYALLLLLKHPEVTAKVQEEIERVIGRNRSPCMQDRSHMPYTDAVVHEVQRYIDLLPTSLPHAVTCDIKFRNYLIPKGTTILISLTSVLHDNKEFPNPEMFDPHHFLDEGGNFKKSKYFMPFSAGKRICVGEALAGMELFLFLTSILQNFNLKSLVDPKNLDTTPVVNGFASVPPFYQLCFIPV
Sulfotransferase 1C4, sequence (O75897 whole entry): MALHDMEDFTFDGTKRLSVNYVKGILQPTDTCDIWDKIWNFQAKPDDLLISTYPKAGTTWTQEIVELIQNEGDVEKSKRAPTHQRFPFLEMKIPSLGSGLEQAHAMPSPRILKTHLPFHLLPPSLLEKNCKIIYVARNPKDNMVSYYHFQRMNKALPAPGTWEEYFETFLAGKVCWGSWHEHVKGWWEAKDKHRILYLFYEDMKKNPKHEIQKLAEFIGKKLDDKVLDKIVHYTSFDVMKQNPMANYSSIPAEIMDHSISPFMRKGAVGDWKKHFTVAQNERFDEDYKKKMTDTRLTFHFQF
Sulfotransferase 1A1, sequence (P50225 whole entry): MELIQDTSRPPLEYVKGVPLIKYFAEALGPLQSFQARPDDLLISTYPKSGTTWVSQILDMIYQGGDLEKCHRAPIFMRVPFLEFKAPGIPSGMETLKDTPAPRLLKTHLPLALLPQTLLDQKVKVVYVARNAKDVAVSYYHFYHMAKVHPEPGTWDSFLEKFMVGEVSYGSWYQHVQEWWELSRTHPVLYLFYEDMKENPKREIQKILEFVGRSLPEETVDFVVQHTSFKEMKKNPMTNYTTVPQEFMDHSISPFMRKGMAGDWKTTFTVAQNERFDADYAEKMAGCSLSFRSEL

Consider `CC(C(=O)O)c1cccc(Oc2ccccc2)c1` (stereo not drawn) [FENOPROFEN], for which the Activity result in series [1] and in series [2] was “Substrate” throughout.

As for `CC(=O)Nc1ccc(O)cc1` [ACETAMINOPHEN], the Activity entry in [3], in [4], in series [5] and in [2] was “Substrate” in each case.

For the compound `CCCCCOC(=O)Nc1nc(=O)n([C@@H]2O[C@H](C)[C@@H](O)[C@H]2O)cc1F` [CAPECITABINE], the Activity result in series [6] is “Inhibitor”.

For the compound `CC(C(=O)O)c1cccc(C(=O)c2ccccc2)c1` (stereo not drawn) [KETOPROFEN], the Activity result in [1], in [2] and in series [7] was “Substrate” in each case.

For `O=C(O)CCCc1ccc(N(CCCl)CCCl)cc1` [CHLORAMBUCIL], the Activity entry in [8] and in [9] was “Substrate” throughout.

Consider `CC(C)(c1ccc(O)cc1)c1ccc(O)cc1` [BISPHENOL A], for which the Activity entry in series [10] was “Substrate”.

For the compound `OC(Cn1cncn1)(Cn1cncn1)c1ccc(F)cc1F` [FLUCONAZOLE], the Activity result in series [6] is given as “Inhibitor”.

As for `O=C1[C@H](CC[C@H](O)c2ccc(F)cc2)[C@@H](c2ccc(O)cc2)N1c1ccc(F)cc1` [EZETIMIBE], the Activity result in series [1] is recorded as “Substrate”.

For `S=P(N1CC1)(N1CC1)N1CC1` [THIOTEPA], in series [9], the Activity entry is recorded as “Substrate”.

On to `C=CC1=C(C)/C(=C/c2[nH]c(Cc3[nH]c(/C=C4\NC(=O)C(C)=C4C=C)c(C)c3CCC(=O)O)c(CCC(=O)O)c2C)NC1=O` [BILIRUBIN], for which, in series [4], the Activity entry is listed as “Substrate”.

`COc1ccc2cc([C@H](C)C(=O)O)ccc2c1` [NAPROXEN]: the Activity result in series [1] and in series [2] was “Substrate” each time.

Consider `Cc1cc(=O)oc2cc(O)ccc12` [HYMECROMONE], for which the Activity entry in series [5] is “Substrate”.

In the case of `Nc1ccc(S(=O)(=O)Nc2ccnn2-c2ccccc2)cc1` [SULFAPHENAZOLE], the Activity entry in [6] is “Inhibitor”.

Consider `C=CC=O` [ACROLEIN], for which the Activity result in series [9] is listed as “Substrate”.

`C[C@]12COC(=O)C[C@@H]1CC[C@@H]1[C@@H]2CC[C@@]2(C)[C@H]1CC[C@]2(C)O` [OXANDROLONE]: the Activity result in [6] is on record as “Inhibitor”.

Turning to `NCCc1c[nH]c2ccc(O)cc12` [SEROTONIN], the Activity result in series [5] is recorded as “Substrate”.

As for `C#C[C@]1(O)CC[C@H]2[C@@H]3CCc4cc(O)ccc4[C@H]3CC[C@@]21C` [ETHINYL ESTRADIOL], the Activity result in series [11] and in [4] was “Substrate” throughout.

As to `O=C(O)COc1ccc(C(=O)c2cccs2)c(Cl)c1Cl`, the Activity entry in series [6] is on record as “Inhibitor”.

Take `CC/C(=C(/CC)c1ccc(O)cc1)c1ccc(O)cc1` [DIETHYLSTILBESTROL]: the Activity result in [10] and in [11] was “Substrate” in each case.

With `CCCCCCCCCc1ccc(O)cc1` [4-NONYLPHENOL], the Activity result in series [10] is “Substrate”.

For `CN1CCC(=C2c3ccccc3CC(=O)c3sccc32)CC1` [KETOTIFEN], the Activity result in series [1] was “Substrate”.

`C[C@]12CC[C@@H]3c4ccc(O)cc4CC[C@H]3[C@@H]1CC[C@@H]2O[C@@H]1O[C@H](C(=O)O)[C@@H](O)[C@H](O)[C@H]1O` [ESTRADIOL 17B GLUCURONIDE]: the Activity entry in series [4] is “Substrate”.

On to `Nc1c2c(nc3ccccc13)CCCC2` [TACRINE], for which the Activity entry in series [12] is reported as “Substrate”.
